We go through 3 compounds from publication PMC11411704, “Gatekeeping Activity of Collinear Ketosynthase Domains Limits Product Diversity for Engineered Type I Polyketide Synthases” (Biochemistry, 2024).

One assay addresses T1, FabD (Escherichia coli, UniProt P0AAI9).
T1 sequence (P0AAI9 2-309): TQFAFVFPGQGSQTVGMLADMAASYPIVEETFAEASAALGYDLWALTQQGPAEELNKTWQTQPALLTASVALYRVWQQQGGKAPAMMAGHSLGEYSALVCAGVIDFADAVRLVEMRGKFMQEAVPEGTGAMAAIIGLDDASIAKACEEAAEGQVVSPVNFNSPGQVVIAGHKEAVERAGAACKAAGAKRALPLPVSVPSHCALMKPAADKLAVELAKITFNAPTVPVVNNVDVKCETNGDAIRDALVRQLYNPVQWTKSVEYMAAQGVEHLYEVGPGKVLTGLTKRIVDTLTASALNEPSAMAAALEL
As to the kind of experiment: carrier protein acylation under triketide pyrone production conditions. The assay is classed as biochemical. The note with it: acceptor: PKS carrier protein domains.

The target in assay [1] is T2, Plt module-1 (P1 PKS module-1) (Pseudomonas fluorescens, UniProt O51827).
T2 construct: gene pltB; module-1 only (KS-AT-CP) of the pyoluteorin PKS, wild-type AT; DEBS interdomain linkers used in the bimodular system; recombinant, purified; borders only in supplement
T2 sequence (O51827 1-1030 limits assumed): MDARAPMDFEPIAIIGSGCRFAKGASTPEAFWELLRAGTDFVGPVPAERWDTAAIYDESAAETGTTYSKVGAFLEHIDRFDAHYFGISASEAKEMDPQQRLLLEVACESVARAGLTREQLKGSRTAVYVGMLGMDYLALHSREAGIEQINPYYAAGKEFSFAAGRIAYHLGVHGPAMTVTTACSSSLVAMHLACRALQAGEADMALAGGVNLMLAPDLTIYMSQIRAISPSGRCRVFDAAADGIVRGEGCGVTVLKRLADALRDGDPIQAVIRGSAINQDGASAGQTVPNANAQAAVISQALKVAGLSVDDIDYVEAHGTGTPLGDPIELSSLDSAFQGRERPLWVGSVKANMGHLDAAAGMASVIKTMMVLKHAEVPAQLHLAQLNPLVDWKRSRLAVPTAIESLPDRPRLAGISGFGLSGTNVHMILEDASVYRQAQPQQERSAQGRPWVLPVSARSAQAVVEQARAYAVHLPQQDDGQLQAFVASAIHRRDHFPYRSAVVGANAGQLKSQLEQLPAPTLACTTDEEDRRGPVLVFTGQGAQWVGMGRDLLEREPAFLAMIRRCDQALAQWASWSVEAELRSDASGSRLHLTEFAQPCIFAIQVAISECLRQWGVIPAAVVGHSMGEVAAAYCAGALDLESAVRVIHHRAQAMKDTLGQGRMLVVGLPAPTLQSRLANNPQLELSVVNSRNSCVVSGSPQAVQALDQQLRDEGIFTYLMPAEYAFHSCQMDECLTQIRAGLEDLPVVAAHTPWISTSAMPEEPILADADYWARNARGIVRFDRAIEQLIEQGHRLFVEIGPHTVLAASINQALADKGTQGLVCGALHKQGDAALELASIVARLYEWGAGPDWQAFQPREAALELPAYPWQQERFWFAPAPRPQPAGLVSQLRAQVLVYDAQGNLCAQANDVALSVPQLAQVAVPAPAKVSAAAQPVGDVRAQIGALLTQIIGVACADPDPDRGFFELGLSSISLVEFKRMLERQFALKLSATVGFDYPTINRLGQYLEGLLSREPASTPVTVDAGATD
As to the kind of experiment: diketide formation, extender unit competition assay. It counts as biochemical. To be noted: 4,5-dichloropyrrolyl-SNAC as ketide substrate; equimolar Mal-CoA and MeMal-CoA made with MatB; product diketide 6.

With `CCC(C(=O)O)C(=O)SCCNC(=O)CCNC(=O)[C@H](O)C(C)(C)COP(=O)(O)OP(=O)(O)OC[C@H]1O[C@@H](n2cnc3c(N)ncnc32)[C@H](O)[C@@H]1OP(=O)(O)O` (stereo partly drawn) [EtMal-CoA], at FabD, the “carrier protein acylation under triketide pyrone production conditions” value was “FabD was also proficient in incorporating EtMal and PgMal extender units”.

Regarding `C#CCC(C(=O)O)C(=O)SCCNC(=O)CCNC(=O)[C@H](O)C(C)(C)COP(=O)(O)OP(=O)(O)OC[C@H]1O[C@@H](n2cnc3c(N)ncnc32)[C@H](O)[C@@H]1OP(=O)(O)O` (stereo partly drawn) [PgMal-CoA], on FabD, the “carrier protein acylation under triketide pyrone production conditions” value was “FabD was also proficient in incorporating EtMal and PgMal extender units”.

Turning to `CC(C(=O)O)C(=O)SCCNC(=O)CCNC(=O)[C@H](O)C(C)(C)COP(=O)(O)OP(=O)(O)OC[C@H]1O[C@@H](n2cnc3c(N)ncnc32)[C@H](O)[C@@H]1OP(=O)(O)O` (stereo partly drawn) [MeMal-CoA], the “diketide formation, extender unit competition assay” value in assay [1] is recorded as “the Plt module-1 KS could efficiently use the MeMal extender unit for diketide production”.
